Test results published in patent US4840954A, “6,7-disubstituted 1-cycloproply-1,4-dihydro-4-oxo-1,8-naphthyridine-3-carboxylic acids” (Bayer Aktiengesellschaft, priority 1985, dated 1989).
≈ marks a conversion by molar mass, not a printed value.

Columns and labels:
Assay type in all cases: cell-based
Klebsiella 63 = test: MIC, agar dilution test, Klebsiella 63; conditions: agar dilution test / Isosensitest medium
Text: (§1) As a comparison, the corresponding MIC values of 1-ethyl-6-fluoro-1,4-dihydro-4-oxo-7-(1-piperazinyl)-1,8-naphthyridine-3-carboxylic acid (AT 2266, enoxacin), which is known from European Patent Application 9,425, Japanese Patent Applications 81/45473 [C.A. 95, 115 597 (1981)] and 81/46811 [C.A. 95, 121 142 (1981)], from J. Med. Chem. 27, 292 (1984) or from J. Heterocycl.
(§2) Agar dilution test / Isosensitest medium

Proteus mir. 8175 = test: MIC, agar dilution test, Proteus mir. 8175; conditions: agar dilution test / Isosensitest medium
Text: as §1, §2

Proteus vulg. 1017 = test: MIC, agar dilution test, Proteus vulg. 1017; conditions: agar dilution test / Isosensitest medium
Text: as §1, §2

E.Coli 455/7 = test: MIC, agar dilution test, E.Coli 455/7; conditions: Escherichia coli, agar dilution test / Isosensitest medium
Text: as §1, §2

Serratia 16040 = test: MIC, agar dilution test, Serratia 16040; conditions: agar dilution test / Isosensitest medium
Text: as §1, §2

Providencia 12012 = test: MIC, agar dilution test, Providencia 12012; conditions: agar dilution test / Isosensitest medium
Text: as §1, §2

E.coli Neum. = test: MIC, agar dilution test, E.coli Neum.; conditions: Escherichia coli, agar dilution test / Isosensitest medium
Text: as §1, §2

Staphyloc. 133 = test: MIC, agar dilution test, Staphyloc. 133; conditions: agar dilution test / Isosensitest medium
Text: as §1, §2

Klebsiella 6179 = test: MIC, agar dilution test, Klebsiella 6179; conditions: agar dilution test / Isosensitest medium
Text: as §1, §2

Proteus morg. 11006 = test: MIC, agar dilution test, Proteus morg. 11006; conditions: agar dilution test / Isosensitest medium
Text: as §1, §2

E.coli 4418 = test: MIC, agar dilution test, E.coli 4418; conditions: Escherichia coli, agar dilution test / Isosensitest medium
Text: as §1, §2

Pseudomonas W. = test: MIC, agar dilution test, Pseudomonas W.; conditions: agar dilution test / Isosensitest medium
Text: as §1, §2

Staphyloc. 1756 = test: MIC, agar dilution test, Staphyloc. 1756; conditions: agar dilution test / Isosensitest medium
Text: as §1, §2

Structure (SMILES)	MIC (Klebsiella 63) [µg/mL]	MIC (Proteus mir. 8175) [µg/mL]	MIC (Proteus vulg. 1017) [µg/mL]	MIC (E.Coli 455/7) [µg/mL]	MIC (Serratia 16040) [µg/mL]	MIC (Providencia 12012) [µg/mL]	MIC (E.coli Neum.) [µg/mL]	MIC (Staphyloc. 133) [µg/mL]	MIC (Klebsiella 6179) [µg/mL]	MIC (Proteus morg. 11006) [µg/mL]	MIC (E.coli 4418) [µg/mL]	MIC (Pseudomonas W.) [µg/mL]	MIC (Staphyloc. 1756) [µg/mL]
CN1CCN(c2nc3c(cc2F)c(=O)c(C(=O)O)cn3C2CC2)CC1.Cl [Example 3, 1-Cyclopropyl-6-fluoro-1,4-dihydro-7-(4-methyl-1-piperazinyl)-4-oxo-1,8-naphthyridine-3-carboxylic acid hydrochloride]	≤ 0.015	0.25	0.125	8	8	0.06	≤ 0.015	0.5	0.03	0.06	0.06	1	0.5
CCn1cc(C(=O)O)c(=O)c2cc(F)c(N3CCNCC3)nc21 [Enoxacin, 1-ethyl-6-fluoro-1,4-dihydro-4-oxo-7-(1-piperazinyl)-1,8-naphthyridine-3-carboxylic acid, reference compound]	0.5 (≈ 1.56 µM)	0.25 (≈ 0.78 µM)	0.125 (≈ 0.39 µM)	16 (≈ 49.9 µM)	32 (≈ 99.9 µM)	0.25 (≈ 0.78 µM)	0.06 (≈ 0.187 µM)	1 (≈ 3.12 µM)	2 (≈ 6.24 µM)	0.125 (≈ 0.39 µM)	0.25 (≈ 0.78 µM)	2 (≈ 6.24 µM)	1 (≈ 3.12 µM)
CC1CN(c2nc3c(cc2F)c(=O)c(C(=O)O)cn3C2CC2)CCN1 (stereo not shown) [Example 2, 1-Cyclopropyl-6-fluoro-1,4-dihydro-7-(3-methyl-1-piperazinyl)-4-oxo-1,8-naphthyridine-3-carboxlyic acid]	≤ 0.015	0.25 (≈ 0.722 µM)	0.125 (≈ 0.361 µM)	8 (≈ 23.1 µM)	8 (≈ 23.1 µM)	0.125 (≈ 0.361 µM)	≤ 0.015	0.5 (≈ 1.44 µM)	0.125 (≈ 0.361 µM)	0.03 (≈ 0.0866 µM)	0.03 (≈ 0.0866 µM)	1 (≈ 2.89 µM)	0.5 (≈ 1.44 µM)
O=C(O)c1cn(C2CC2)c2nc(N3CCNCC3)c(F)cc2c1=O [Example 1, 1-Cyclopropyl-6-fluoro-1,4-dihydro-4-oxo-7-(1-piperazinyl)-1,8-naphthyridine-3-carboxylic acid]	0.03 (≈ 0.0903 µM)	0.125 (≈ 0.376 µM)	0.06 (≈ 0.181 µM)	4 (≈ 12 µM)	8 (≈ 24.1 µM)	0.03 (≈ 0.0903 µM)	≤ 0.015	0.5 (≈ 1.5 µM)	0.125 (≈ 0.376 µM)	0.06 (≈ 0.181 µM)	0.03 (≈ 0.0903 µM)	0.125 (≈ 0.376 µM)	0.5 (≈ 1.5 µM)
